Source: US9695155B2, “Herbicidal substituted pyrimidinyloxy benzene compounds” (E. I. DU PONT DE NEMOURS AND COMPANY, priority 2013, dated 2017)

How the values were obtained:
barnyardgrass [1] = assay: Test A preemergence; assay type: in vivo, Echinochloa crus-galli; details: 0 to 100 scale where 0 is no effect and 100 is complete control
In short: (§1)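 Greenhouse pot test, loam/sand soil. Formulation: non-phytotoxic solvent mix plus surfactant. Pre: directed spray onto soil after sowing. Post: plants at 1–2 leaf, 2–10 cm. Rated visually vs untreated controls at ~10 d, 0 (no effect) to 100 (complete control).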

kochia [2] = assay: Test A preemergence; assay type: in vivo, Kochia scoparia; details: 0 to 100 scale where 0 is no effect and 100 is complete control; for Kochia plant response rating: 500 g ai/ha
In short: as §1

ragweed [3] = assay: Test A preemergence; assay type: in vivo, Ambrosia elatior; details: 0 to 100 scale where 0 is no effect and 100 is complete control; for Ragweed plant response rating: 500 g ai/ha
In short: as §1

Italian ryegrass [4] = assay: Test A preemergence; assay type: in vivo, Lolium multiflorum; details: 0 to 100 scale where 0 is no effect and 100 is complete control; for Ryegrass, Italian plant response rating: 500 g ai/ha
In short: as §1

giant foxtail [5] = assay: Test A preemergence; assay type: in vivo, Setaria faberii; details: 0 to 100 scale where 0 is no effect and 100 is complete control
In short: as §1

pigweed [6] = assay: Test A preemergence; assay type: in vivo, Amaranthus retroflexus; details: 0 to 100 scale where 0 is no effect and 100 is complete control
In short: as §1

barnyardgrass [7] = assay: Test A postemergence; assay type: in vivo, Echinochloa crus-galli; details: for Barnyardgrass plant response rating: 125 g ai/ha
In short: as §1

kochia [8] = assay: Test A postemergence; assay type: in vivo, Kochia scoparia; details: for Kochia plant response rating: 125 g ai/ha
In short: as §1

ragweed [9] = assay: Test A postemergence; assay type: in vivo, Ambrosia elatior; details: for Ragweed plant response rating: 125 g ai/ha
In short: as §1

Italian ryegrass [10] = assay: Test A postemergence; assay type: in vivo, Lolium multiflorum; details: for Ryegrass, Italian plant response rating: 125 g ai/ha
In short: as §1

giant foxtail [11] = assay: Test A postemergence; assay type: in vivo, Setaria faberii; details: for Foxtail, Giant plant response rating: 125 g ai/ha
In short: as §1

pigweed [12] = assay: Test A postemergence; assay type: in vivo, Amaranthus retroflexus; details: for Pigweed plant response rating: 125 g ai/ha
In short: as §1

wheat = assay: Test A postemergence; assay type: in vivo, Triticum aestivum; details: for Wheat plant response rating: 125 g ai/ha
In short: as §1

corn = assay: Test A postemergence; assay type: in vivo, Zea mays; details: for Corn plant response rating: 125 g ai/ha
In short: as §1

blackgrass = assay: Test A postemergence; assay type: in vivo, Alopecurus myosuroides; details: for Blackgrass plant response rating: 125 g ai/ha
In short: as §1

galium = assay: Test A postemergence; assay type: in vivo, Galium aparine; details: for Galium plant response rating: 125 g ai/ha
In short: as §1

rice = assay: Test B flooded paddy test; assay type: in vivo, Oryza sativa; details: Flood, 250 g ai/ha; 0 to 100 scale where 0 is no effect and 100 is complete control
In short: (§2)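 Seedlings are raised to two leaves, flooded to a depth of 3 cm and dosed by adding the compound to the floodwater. Water level is kept constant, and plants are scored visually versus controls 13–15 days later (0 = no effect, 100 = complete control).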

sedge, umbrella = assay: Test B flooded paddy test; assay type: in vivo, Cyperus difformis; details: Flood, 250 g ai/ha; 0 to 100 scale where 0 is no effect and 100 is complete control
In short: as §2

Heteranthera limosa = assay: Test B flooded paddy test; assay type: in vivo; details: Flood, 250 g ai/ha; 0 to 100 scale where 0 is no effect and 100 is complete control
In short: as §2

barnyardgrass [13] = assay: Test B flooded paddy test; assay type: in vivo, Echinochloa crus-galli; details: Flood, 250 g ai/ha; 0 to 100 scale where 0 is no effect and 100 is complete control
In short: as §2

[14] = 0 to 100 scale where 0 is no effect and 100 is complete control
[15] = 500 g ai/ha, 0 to 100 scale where 0 is no effect and 100 is complete control
[16] = 31 g ai/ha, visual, approximately 10 days
[17] = 31 g ai/ha, 0 to 100 scale, 0 no effect, 100 complete control

| SMILES | Plant response rating, Barnyardgrass (barnyardgrass [1]; 125 g ai/ha) | Plant response rating, Kochia (kochia [2]; 125 g ai/ha) | Plant response rating, Ragweed (ragweed [3]; 125 g ai/ha) | Plant response rating, Ryegrass, Italian (Italian ryegrass [4]; 125 g ai/ha) | Plant response rating, Foxtail, Giant (giant foxtail [5]; 125 g ai/ha) | Plant response rating, Pigweed (pigweed [6]; 125 g ai/ha) | Barnyardgrass plant response rating (barnyardgrass [7]; [14]) | Kochia plant response rating (kochia [8]; [14]) | Ragweed plant response rating (ragweed [9]; [14]) | Ryegrass, Italian plant response rating (Italian ryegrass [10]; [14]) | Foxtail, Giant plant response rating (giant foxtail [11]; [14]) | Pigweed plant response rating (pigweed [12]; [14]) | Wheat plant response rating (wheat; [14]) | Corn plant response rating (corn; [14]) | Blackgrass plant response rating (blackgrass; [14]) | Galium plant response rating (galium; [14]) | Plant response rating, Rice (rice) | Plant response rating, Sedge, Umbrella (sedge, umbrella) | Plant response rating, Ducksalad (Heteranthera limosa) | Plant response rating, Barnyardgrass (barnyardgrass [13]) | other results |
| --- | --- | --- | --- | --- | --- | --- | --- | --- | --- | --- | --- | --- | --- | --- | --- | --- | --- | --- | --- | --- | --- |
| N#Cc1cccc(Oc2ncc(Cl)cn2)c1-n1cc(SC(F)(F)F)cn1 [Compound 143, 3-[(5-chloro-2-pyrimidinyl)oxy]-2-[4-(trifluoromethylthio)-1H-pyrazol-1-yl]-benzonitrile] | 30 | 50 | 0 | 0 | 80 | 90 | 0 | 30 | 0 | 0 | 0 | 70 | 0 | 30 | 0 | 30 | 0 | 0 | 40 | 0 | pest or weed control at 500 g/ha (barnyardgrass [1]; Echinochloa crus-galli, pre-emergence, 240 h, 500 g ai/ha, read-out: Barnyardgrass plant response rating): 100%; Kochia plant response rating (kochia [2]): 100; Ragweed plant response rating (ragweed [3]): 20; Ryegrass, Italian plant response rating (Italian ryegrass [4]): 20; pest or weed control at 500 g/ha (giant foxtail [5]; Setaria faberi, pre-emergence, 240 h, 500 g ai/ha, read-out: Foxtail, Giant plant response rating): 100%; pest or weed control at 500 g/ha (pigweed [6]; Amaranthus retroflexus, pre-emergence, 240 h, 500 g ai/ha, read-out: Pigweed plant response rating): 100%; pest or weed control at 500 g/ha (barnyardgrass [7]; Echinochloa crus-galli, post-emergence, 240 h, 500 g ai/ha, 0 to 100 scale where 0 is no effect and 100 is complete control, read-out: Plant response rating, Barnyardgrass): 80%; Plant response rating, Kochia (kochia [8]; [15]): 90; Plant response rating, Ragweed (ragweed [9]; [15]): 100; Plant response rating, Ryegrass, Italian (Italian ryegrass [10]; [15]): 90; pest or weed control at 500 g/ha (giant foxtail [11]; Setaria faberi, post-emergence, 240 h, 500 g ai/ha, 0 to 100 scale where 0 is no effect and 100 is complete control, read-out: Plant response rating, Foxtail, Giant): 100%; pest or weed control at 500 g/ha (pigweed [12]; Amaranthus retroflexus, post-emergence, 500 g ai/ha, 0 to 100 scale where 0 is no effect and 100 is complete control, read-out: Plant response rating, Pigweed): 100%; Plant response rating, Wheat (wheat; [15]): 30; Corn plant response rating (crop injury, 0 = no effect, 100 = complete kill) at 500 g/ha (corn; Zea mays, post-emergence, 240 h, 500 g ai/ha, 0 to 100 scale where 0 is no effect and 100 is complete control): 40%; Plant response rating, Blackgrass (blackgrass; [15]): 90; Plant response rating, Galium (galium; [15]): 100 |
| N#Cc1cnn(-c2c(Cl)cccc2Oc2ncc(Cl)cn2)c1 [Compound 144] | 90 | 100 | 100 | 20 | 100 | 100 | 90 | 100 | 80 | 50 | 100 | 100 | 20 | 40 | 90 | 90 | 0 | 80 | 95 | 0 | Plant response rating, Barnyardgrass (barnyardgrass [1]; [16]): 20; Plant response rating, Kochia (kochia [2]; [16]): 70; Plant response rating, Ragweed (ragweed [3]; [16]): 0; Plant response rating, Ryegrass, Italian (Italian ryegrass [4]; [16]): 20; Plant response rating, Foxtail, Giant (giant foxtail [5]; [16]): 70; Plant response rating, Pigweed (pigweed [6]; [16]): 90; Plant response rating, Barnyardgrass (barnyardgrass [7]; [17]): 20; Plant response rating, Kochia (kochia [8]; [17]): 50; Plant response rating, Ragweed (ragweed [9]; [17]): 20; Plant response rating, Ryegrass, Italian (Italian ryegrass [10]; [17]): 0; Plant response rating, Foxtail, Giant (giant foxtail [11]; [17]): 20; Plant response rating, Pigweed (pigweed [12]; [17]): 80; Plant response rating, Wheat (wheat; [17]): 20; Plant response rating, Corn (corn; [17]): 20; Plant response rating, Blackgrass (blackgrass; [17]): 20; Plant response rating, Galium (galium; [17]): 80 |
| CC(F)c1cccc(Oc2ncc(Cl)cn2)c1-n1cc(Br)cn1 (stereo not drawn) [Compound 146] | 20 | 40 | 0 | 0 | 70 | 60 | 10 | 70 | 10 | 0 | 20 | 100 | 0 | 10 | 20 | 50 | 0 | 40 | 40 | 20 | Barnyardgrass plant response rating (barnyardgrass [1]; 500 g ai/ha): 90; Kochia plant response rating (kochia [2]): 100; Ragweed plant response rating (ragweed [3]): 100; Ryegrass, Italian plant response rating (Italian ryegrass [4]): 50; Foxtail, Giant plant response rating (giant foxtail [5]; 500 g ai/ha): 100; Pigweed plant response rating (pigweed [6]; 500 g ai/ha): 100; Plant response rating, Barnyardgrass (barnyardgrass [7]; [15]): 60; Plant response rating, Kochia (kochia [8]; [15]): 100; Plant response rating, Ragweed (ragweed [9]; [15]): 10; Plant response rating, Ryegrass, Italian (Italian ryegrass [10]; [15]): 40; Plant response rating, Foxtail, Giant (giant foxtail [11]; [15]): 80; Plant response rating, Pigweed (pigweed [12]; [15]): 100; Plant response rating, Wheat (wheat; [15]): 0; Plant response rating, Corn (corn; [15]): 30; Plant response rating, Blackgrass (blackgrass; [15]): 70; Plant response rating, Galium (galium; [15]): 100 |
| CC(C)Oc1cnn(-c2c(C#N)cccc2Oc2ncc(Cl)cn2)c1 [Compound 149] | 90 | 100 | 60 | 20 | 100 | 100 | 70 | 70 | 80 | 30 | 90 | 100 | 0 | 20 | 80 | 100 | 0 | 65 | 70 | 0 | Plant response rating, Barnyardgrass (barnyardgrass [1]; [16]): 40; Plant response rating, Kochia (kochia [2]; [16]): 70; Plant response rating, Ragweed (ragweed [3]; [16]): 0; Plant response rating, Ryegrass, Italian (Italian ryegrass [4]; [16]): 0; Plant response rating, Foxtail, Giant (giant foxtail [5]; [16]): 60; Plant response rating, Pigweed (pigweed [6]; [16]): 100; Plant response rating, Barnyardgrass (barnyardgrass [7]; [17]): 20; Plant response rating, Kochia (kochia [8]; [17]): 60; Plant response rating, Ragweed (ragweed [9]; [17]): 50; Plant response rating, Ryegrass, Italian (Italian ryegrass [10]; [17]): 0; Plant response rating, Foxtail, Giant (giant foxtail [11]; [17]): 20; Plant response rating, Pigweed (pigweed [12]; [17]): 60; Plant response rating, Wheat (wheat; [17]): 0; Plant response rating, Corn (corn; [17]): 0; Plant response rating, Blackgrass (blackgrass; [17]): 50; Plant response rating, Galium (galium; [17]): 70 |
| CCCOc1cnn(-c2c(F)cccc2Oc2ncc(F)cn2)c1 [Compound 153] | 0 | 0 | 0 | 0 | 0 | 0 | 0 | 0 | 0 | 0 | 0 | 0 | 0 | 0 | 0 | 0 | 0 | 0 | 30 | 0 | Plant response rating, Barnyardgrass (barnyardgrass [1]; [16]): 0; Plant response rating, Kochia (kochia [2]; [16]): 0; Plant response rating, Ragweed (ragweed [3]; [16]): 0; Plant response rating, Ryegrass, Italian (Italian ryegrass [4]; [16]): 0; Plant response rating, Foxtail, Giant (giant foxtail [5]; [16]): 0; Plant response rating, Pigweed (pigweed [6]; [16]): 0; Plant response rating, Barnyardgrass (barnyardgrass [7]; [17]): 0; Plant response rating, Kochia (kochia [8]; [17]): 0; Plant response rating, Ragweed (ragweed [9]; [17]): 0; Plant response rating, Ryegrass, Italian (Italian ryegrass [10]; [17]): 0; Plant response rating, Foxtail, Giant (giant foxtail [11]; [17]): 0; Plant response rating, Pigweed (pigweed [12]; [17]): 0; Plant response rating, Wheat (wheat; [17]): 0; Plant response rating, Corn (corn; [17]): 0; Plant response rating, Blackgrass (blackgrass; [17]): 0; Plant response rating, Galium (galium; [17]): 0 |
